How the values were obtained:
[1] = molecular target: T1, androgen receptor (AR-LBD) (Rattus norvegicus, UniProt P15207); assay: Evaluation of androgen receptor affinity (PolarScreen Androgen Receptor Competitor Assay Kit, Red; fluorescence polarization); conditions: 22° C. for 5 hours, relative to binding rate of 1 μM DHT, read-out: AR affinity (pEC50) (converted)
T1 construct: 5 μL of 2×AR-LBD/Fluoromone AL Red Complex contained in the kit; purchased Invitrogen
T1 sequence (P15207 651-882 limits assumed): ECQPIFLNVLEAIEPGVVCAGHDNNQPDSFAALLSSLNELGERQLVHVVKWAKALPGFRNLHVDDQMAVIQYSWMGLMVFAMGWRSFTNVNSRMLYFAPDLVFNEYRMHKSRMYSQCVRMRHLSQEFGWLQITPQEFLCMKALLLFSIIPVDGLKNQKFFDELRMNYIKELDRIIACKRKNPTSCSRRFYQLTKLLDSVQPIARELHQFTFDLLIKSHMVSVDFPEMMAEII
How it was run: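 FP competition: compound + AR-LBD/Fluoromone AL Red tracer complex, 22° C, 5 h. Reference 1 μM DHT binding rate; pEC50 by 4-parameter fit.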

[2] = molecular target: T2, human androgen receptor (Homo sapiens, UniProt P10275); assay: Reporter assay of an androgen receptor responsive sequence (luciferase, transiently transfected HEK293 cells); assay type: cell-based; conditions: 24 hours incubation, relative to activity of 100 nM DHT, read-out: AR transcriptive activity (pEC50) (converted)
T2 construct: expressed in transfected cells; host or cells: HEK293
T2 sequence (P10275 1-920): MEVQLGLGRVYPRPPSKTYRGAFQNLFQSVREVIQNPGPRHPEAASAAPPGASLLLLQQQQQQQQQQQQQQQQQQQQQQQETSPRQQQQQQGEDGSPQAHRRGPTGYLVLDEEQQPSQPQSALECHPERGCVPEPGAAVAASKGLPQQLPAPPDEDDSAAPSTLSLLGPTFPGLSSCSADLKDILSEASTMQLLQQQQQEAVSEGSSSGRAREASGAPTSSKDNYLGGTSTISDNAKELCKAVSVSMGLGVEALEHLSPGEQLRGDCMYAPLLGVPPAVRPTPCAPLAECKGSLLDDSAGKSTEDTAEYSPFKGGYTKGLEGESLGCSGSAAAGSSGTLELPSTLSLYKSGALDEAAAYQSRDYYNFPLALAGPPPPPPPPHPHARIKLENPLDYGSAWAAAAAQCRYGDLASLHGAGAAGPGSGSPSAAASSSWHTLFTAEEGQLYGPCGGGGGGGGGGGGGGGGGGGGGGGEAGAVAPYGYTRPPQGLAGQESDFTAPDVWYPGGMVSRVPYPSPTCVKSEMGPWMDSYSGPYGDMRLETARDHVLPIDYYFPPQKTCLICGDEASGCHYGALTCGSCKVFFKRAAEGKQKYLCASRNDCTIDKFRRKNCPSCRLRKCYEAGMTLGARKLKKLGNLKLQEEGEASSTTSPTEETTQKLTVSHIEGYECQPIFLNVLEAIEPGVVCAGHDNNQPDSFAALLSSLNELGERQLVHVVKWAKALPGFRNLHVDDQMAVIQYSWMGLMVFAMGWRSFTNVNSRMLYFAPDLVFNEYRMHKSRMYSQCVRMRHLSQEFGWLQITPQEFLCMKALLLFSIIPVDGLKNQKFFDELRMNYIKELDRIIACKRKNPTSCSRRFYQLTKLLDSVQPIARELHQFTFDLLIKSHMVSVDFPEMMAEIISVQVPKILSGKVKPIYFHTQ
How it was run: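 Agonism scored as pEC50, fitted by 4-parameter curve against the response to 100 nM DHT, from dual-luciferase readout after 24 h compound treatment. Cells were HEK293 co-transfected (3 h) with human AR expression vector, androgen-responsive firefly reporter and Renilla control, in charcoal-stripped serum.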

| SMILES | EC50 [1] [nM] | EC50 [2] [nM] |
| --- | --- | --- |
| Cc1sc(N(Cc2ccccc2)c2ccc(C#N)cc2)nc1C(=O)NS(=O)(=O)CCC(F)(F)F [Compound 387, 2-(N-benzyl-4-cyano-anilino)-5-methyl-N-(3,3,3-trifluoropropylsulfonyl)thiazole-4-carboxamide] | 63.1 | 398 |
| Cc1sc(N(CC(=O)c2ccccc2)Cc2ccccc2)nc1C(=O)NS(C)(=O)=O [Compound 463, 2-[benzyl(phenacyl)amino]-5-methyl-N-methylsulfonyl-thiazole-4-carboxamide] | 316 | 5010 |
| Cc1sc(N(Cc2ccccc2)c2ccc(C#N)cc2)nc1C(=O)NS(=O)(=O)Cc1cccnc1 [Compound 397, 2-(N-benzyl-4-cyano-anilino)-5-methyl-N-(3-pyridylmethylsulfonyl)thiazole-4-carboxamide] | 63.1 | 126 |
| Cc1sc(N(CCn2cc(Cl)cn2)Cc2ccccc2)nc1C(=O)NS(C)(=O)=O [Compound 709, 2-[benzyl-[2-(4-chloropyrazol-1-yl)ethyl]amino]-5-methyl-N-methylsulfonyl-thiazole-4-carboxamide] | 200 | 631 |
| CS(=O)(=O)NC(=O)c1nc(N(Cc2ccc(Cl)cc2)c2ccc(C#N)cc2)oc1C1CC1 [Compound 646, 2-[N-[(4-chlorophenyl)methyl]-4-cyano-anilino]-5-cyclopropyl-N-methylsulfonyl-oxazole-4-carboxamide] | 39.8 | > 10000 |
| Cc1sc(N(Cc2ccc(Br)cc2C#N)c2ccc(C#N)cc2)nc1C(=O)NS(C)(=O)=O [Example 182, 2-[N-[(4-bromo-2-cyano-phenyl)methyl]-4-cyano-anilino]-5-methyl-N-methylsulfonyl-thiazole-4-carboxamide] | 631 | > 10000 |
| Cc1sc(N(Cc2ccc(F)cc2)[C@H]2C[C@@H]2c2ccccc2)nc1C(=O)NS(C)(=O)=O (racemic) [Compound 149, 2-[(4-fluorophenyl)methyl-(trans-2-phenylcyclopropyl)amino]-5-methyl-N-methylsulfonyl-thiazole-4-carboxamide] | 158 | 1000 |
| Cc1sc(N(CC2CCC3(CC2)CC3)c2ccc(C#N)cc2)nc1C(=O)NS(C)(=O)=O [Compound 489, 2-[4-cyano-N-(spiro[2.5]octan-6-ylmethyl)anilino]-5-methyl-N-methylsulfonyl-thiazole-4-carboxamide] | 79.4 | 1000 |
| Cc1sc(N(Cc2ccc(Cl)cc2F)c2ccc(C#N)cc2)nc1C(=O)NS(C)(=O)=O [Compound 70, 2-[N-[(4-chloro-2-fluoro-phenyl)methyl]-4-cyano-anilino]-5-methyl-N-methylsulfonyl-thiazole-4-carboxamide] | 31.6 | 63.1 |
| Cc1sc(N(CC2=CCCCC2)c2ccc(C#N)cc2)nc1C(=O)NS(C)(=O)=O [Compound 366, 2-[4-cyano-N-(cyclohexen-1-ylmethyl)anilino]-5-methyl-N-methylsulfonyl-thiazole-4-carboxamide] | 39.8 | 50.1 |
| Cc1sc(N(Cc2ccccc2)c2ccc(C#N)cc2)nc1C(=O)NS(=O)(=O)CC(F)(F)F [Compound 372, 2-(N-benzyl-4-cyano-anilino)-5-methyl-N-(2,2,2-trifluoroethylsulfonyl)thiazole-4-carboxamide] | 31.6 | 1260 |
| Cc1sc(N(CC2CCCCC2)c2ccc(C#N)cc2)nc1C(=O)NS(C)(=O)=O [Compound 344, 2-[4-cyano-N-(cyclohexylmethyl)anilino]-5-methyl-N-methylsulfonyl-thiazole-4-carboxamide] | 39.8 | 794 |
| Cc1ccc(CN(c2ccc(C#N)cc2)c2nc(C(=O)NS(C)(=O)=O)c(C)s2)cc1 [Compound 17, 2-[4-cyano-N-(p-tolylmethyl)anilino]-5-methyl-N-methylsulfonyl-thiazole-4-carboxamide] | 25.1 | 25.1 |
| Cc1oc(N(CCc2ccc(OC(F)(F)F)cc2)Cc2ccc(C(F)(F)F)nc2)nc1C(=O)NS(C)(=O)=O [Compound 562, 5-methyl-N-methylsulfonyl-2-[2-[4-(trifluoromethoxy)phenyl]ethyl-[[6-(trifluoromethyl)-3-pyridyl]methyl]amino]oxazole-4-carboxamide] | 39.8 | 794 |
| CS(=O)(=O)NC(=O)c1nc(N(Cc2ccccc2F)c2ccc(C#N)cc2)sc1Br [Example 242, 5-bromo-2-[4-cyano-N-[(2-fluorophenyl)methyl]anilino]-N-methylsulfonyl-thiazole-4-carboxamide] | 63.1 | 100 |
| Cc1sc(N(Cc2ccc(F)cc2)c2ccc(C#N)cc2)nc1C(=O)NS(=O)(=O)Cc1ccncc1 [Compound 501, 2-[4-cyano-N-[(4-fluorophenyl)methyl]anilino]-5-methyl-N-(4-pyridylmethylsulfonyl)thiazole-4-carboxamide] | 39.8 | 63.1 |
| Cc1sc(N(Cc2cccc(N3CCCC3)c2)c2ccc(C#N)cc2)nc1C(=O)NS(C)(=O)=O [Example 216, 2-[4-cyano-N-[(3-pyrrolidin-1-ylphenyl)methyl]anilino]-5-methyl-N-methylsulfonyl-thiazole-4-carboxamide] | 63.1 | 1260 |
| CCCCCCN(c1ccc(C#N)cc1)c1nc(C(=O)NS(C)(=O)=O)c(C)s1 [Compound 75, 2-(4-cyano-N-hexyl-anilino)-5-methyl-N-methylsulfonyl-thiazole-4-carboxamide] | 31.6 | 398 |
| Cc1sc(N(Cc2ccccc2)c2ccc(S(F)(F)(F)(F)F)cc2)nc1C(=O)NS(C)(=O)=O [Example 241, 2-[N-benzyl-4-(pentafluorosulfanyl)anilino]-5-methyl-N-methylsulfonyl-thiazole-4-carboxamide] | 316 | 1000 |
| Cc1oc(N(CCc2ccc(Cl)cc2)Cc2ccc(OC(F)(F)F)cc2)nc1C(=O)NS(C)(=O)=O [Compound 544, 2-[2-(4-chlorophenyl)ethyl-[[4-(trifluoromethoxy)phenyl]methyl]amino]-5-methyl-N-methylsulfonyl-oxazole-4-carboxamide] | 39.8 | 316 |
| Cc1sc(N(Cc2cccc(OC(F)F)c2)c2ccc(C#N)cc2)nc1C(=O)NS(C)(=O)=O [Compound 4, 2-[4-cyano-N-[[3-(difluoromethoxy)phenyl]methyl]anilino]-5-methyl-N-methylsulfonyl-thiazole-4-carboxamide] | 25.1 | 63.1 |
| Cc1sc(N(Cc2ccc(N3CCCC3=O)cc2)c2ccc(C#N)cc2)nc1C(=O)NS(C)(=O)=O [Compound 589, 2-[4-cyano-N-[[4-(2-oxopyrrolidin-1-yl)phenyl]methyl]anilino]-5-methyl-N-methylsulfonyl-thiazole-4-carboxamide] | 1000 | > 10000 |
| CCc1oc(N(Cc2cccc(Cl)c2)c2ccc(C#N)cc2)nc1C(=O)NS(C)(=O)=O [Compound 631, 2-[N-[(3-chlorophenyl)methyl]-4-cyano-anilino]-5-ethyl-N-methylsulfonyl-oxazole-4-carboxamide] | 39.8 | 794 |
| Cc1sc(N(Cc2ccccc2)c2ccc(C#N)cc2)nc1C(=O)NS(=O)(=O)Cc1ccncc1 [Compound 395, 2-(N-benzyl-4-cyano-anilino)-5-methyl-N-(4-pyridylmethylsulfonyl)thiazole-4-carboxamide] | 100 | 158 |
| Cc1sc(N(Cc2cccc(OCC(C)C)c2)c2ccc(C#N)cc2)nc1C(=O)NS(C)(=O)=O [Compound 586, 2-[4-cyano-N-[(3-isobutoxyphenyl)methyl]anilino]-5-methyl-N-methylsulfonyl-thiazole-4-carboxamide] | 79.4 | 7940 |

From patent publication US10689354B2, “Aminoazole derivative” (Teijin Pharma Limited, priority 2015, dated 2020)
